Experimental data taken from patent publication US8575142B2, “Agent for improving insulin resistance” (Morinaga Milk Industry Co., Ltd., priority 2005, dated 2013).
Several values for one entry are separate records, joined by “and”; a condition that tells them apart may be missing. Equal entries are not always repeated.

What was measured:
Type in all cases: in vivo
[1] = test system: AKR mice to which insulin resistance was induced by feeding with a high-fat diet; assay: Level of free fatty acid in serum of AKR mice with high-fat-diet-induced insulin resistance; conditions: 60th day of oral administration; for Free fatty acid: mouse serum, under fasting, 25 μg/kg of body weight once a day; for Test sample/negative sample (free fatty acid level in serum): relative to negative sample group, 25 μg/kg once a day
Protocol: Compound 3 (4-methylcholest-7-en-3-ol), Compound 4 (4-methylergost-7-en-3-ol), and Compound 5 (4-methylstigmast-7-en-3-ol) which were produced in Preparation Example 1 were each dissolved in DMSO and adjusted with distilled water to each have a concentration of 1 μg/ml, to thereby prepare Test Samples 1, 2, and 3. In this case, DMSO was adjusted to have a final concentration of 0.2%.
After that, the mice were divided into groups of 8 mice each. Each of the groups of mice were orally administered with 1 ml per 40 g of body weight (25 μg/kg of body weight) of a test sample or the negative sample once a day using a sonde.

TNF-α = TNF-α production by epididymal fat tissues collected from treated insulin-resistant AKR mice (ELISA); conditions: for TNF-α: culture supernatant of epididymal fat tissue after 1 hour culture, 60th day of oral administration, 25 μg/kg once a day; for Effect on production of TNF-α as compared with negative sample group: fat tissues, 60th day, 25 μg/kg oral once a day, Tukey-Kramer's test
Protocol: (§1) The present example was performed by using AKR mice to which insulin resistance was induced by feeding with a high-fat diet, to evaluate the effects of the agent for amelioration insulin resistance of the present invention on production of TNF-α and MCP-1 from respective cells of fat tissues.
(§2) In Example 2, the same test samples and negative sample as those prepared in Example 1 were used.
(§3) After that, the mice were divided into groups of 8 mice each. Each of the groups of mice was orally administered with 1 ml per 40 g of body weight (25 μg/kg of body weight) of a test sample or the negative sample once a day using a sonde. […] After 1 hour of the culture, culture supernatants were collected, and concentrations of TNF-α and MCP-1 in the culture supernatants were measured by ELISA (Biosource).

MCP-1 = MCP-1 production by epididymal fat tissues collected from treated insulin-resistant AKR mice (ELISA); conditions: for MCP-1: culture supernatant of epididymal fat tissue after 1 hour culture, 60th day of oral administration, 25 μg/kg once a day; for Effect on production of MCP-1 as compared with negative sample group: fat tissues, 60th day, 25 μg/kg oral once a day, Tukey-Kramer's test
Protocol: as §1, §2, §3

[2] = test system: AKR mice to which insulin resistance was induced by feeding with a high-fat diet; assay: Insulin tolerance test in AKR mice with high-fat-diet-induced insulin resistance; conditions: 45th day of oral administration, 25 μg/kg once a day; 4 hours fasted; 0.75 U/kg human insulin intraperitoneally; up to 60 minutes; compared with negative sample
Protocol: The present example was performed by using AKR mice to which insulin resistance was induced by feeding with a high-fat diet, to confirm an enhancing effect of the agent for improving insulin resistance of the present invention on insulin sensitivity by performing an insulin tolerance test.
In Example 3, the same test samples and negative sample as those prepared in Examples 1 and 2 were used.
After that, the mice were divided into groups of 8 mice each. Each of the groups of mice was orally administered with 1 ml per 40 g of body weight (25 μg/kg of body weight) of a test sample or the negative sample once a day using a sonde. […] The insulin tolerance test in the present example was performed in such a manner that: the mice were fasted for 4 hours, and were then intraperitoneally administered with 0.75 U/kg of body weight of a human insulin (Eli Lily and Company); and changes with time in blood glucose level were measured from the initiation of the administration of insulin to after 60 minutes later.

CC(C)CCCC(C)C1CCC2C3=CCC4C(C)C(O)CCC4(C)C3CCC21C (stereo not drawn) [Test Sample 1, 4-methylcholest-7-en-3-ol]
Free fatty acid [1]: 1.35 ± 0.23 mEp/l | Test sample/negative sample (free fatty acid level in serum) [1]: 86.4% and 84.5% | TNF-α (TNF-α): 33.73 ± 1.68 pg/mL | Effect on production of TNF-α as compared with negative sample group (TNF-α): significant inhibitory effects | MCP-1 (MCP-1): 100.86 ± 8.31 pg/mL | Effect on production of MCP-1 as compared with negative sample group (MCP-1): significant inhibitory effects | Change in blood glucose level after administration of insulin (FIG. 1) [2]: rapid reduction in blood glucose levels

CC(C)C(C)CCC(C)C1CCC2C3=CCC4C(C)C(O)CCC4(C)C3CCC21C (stereo not drawn) [Test Sample 2, 4-methylergost-7-en-3-ol]
Free fatty acid [1]: 1.21 ± 0.22 mEp/l | Test sample/negative sample (free fatty acid level in serum) [1]: 81.6% | TNF-α (TNF-α): 32.71 ± 1.70 pg/mL | Effect on production of TNF-α as compared with negative sample group (TNF-α): significant inhibitory effects | MCP-1 (MCP-1): 95.56 ± 10.56 pg/mL | Effect on production of MCP-1 as compared with negative sample group (MCP-1): significant inhibitory effects | Change in blood glucose level after administration of insulin (FIG. 1) [2]: rapid reduction in blood glucose levels

CCC(CCC(C)C1CCC2C3=CCC4C(C)C(O)CCC4(C)C3CCC21C)C(C)C (stereo not drawn) [Test Sample 3, 4-methylstigmast-7-en-3-ol]
Free fatty acid [1]: 0.90 ± 0.15 mEp/l | Test sample/negative sample (free fatty acid level in serum) [1]: 60.8% | TNF-α (TNF-α): 29.80 ± 3.82 pg/mL | Effect on production of TNF-α as compared with negative sample group (TNF-α): significant inhibitory effects | MCP-1 (MCP-1): 87.80 ± 9.24 pg/mL | Effect on production of MCP-1 as compared with negative sample group (MCP-1): significant inhibitory effects | Change in blood glucose level after administration of insulin (FIG. 1) [2]: rapid reduction in blood glucose levels
